The results in this text go back to US20150352108A1, “AMINO-PYRIMIDINE COMPOUNDS AS INHIBITORS OF TBK1 AND/OR IKK EPSILON” (Alzheimer's Institute of America, priority 2009, published 2015).

The test system of data set [1] is IKKε-mediated phosphorylation of IRF7. The data set can be described thus: In-situ IKKε-mediated phosphorylation of IRF7 in HEK293T cells (Western blot). The data set is classed as cell-based.
The subject of data set [2] is RANTES production, human fibroblast-like synoviocytes (HFLS-RA). The data set can be described thus: Inhibition of RANTES production by HFLS-RA cells induced with Poly(I:C). Particulars: Poly(I:C) induction. The data set is classed as cell-based. The protocol: HFLS cells (HFLS-RA) isolated from patients with rheumatoid arthritis were obtained from Cell Applications, Inc. (San Diego, Calif.). Cells were seeded in synoviocyte growth medium (Cell Applications, Inc., San Diego, Calif.) and allowed to grow overnight. The following day, media was replaced and cells were treated with varying concentrations of selected compounds according to Formula I (e.g., Example Compound 5) (0.1% final DMSO concentration). Two hours later, cells were induced with 50 µg/mL Poly(I:C) (Sigma-Aldrich, St. Louis, Mo.). Supernatants were collected 20 hours post-induction and used to monitor RANTES and IP-10 levels using DuoSet ELISA kits (Human CXCL10/IP-10 DuoSet & Human CCL5/RANTES DuoSet; R&D Systems, Inc., Minneapolis, Minn.).

Data set [3] deals with Poly(I:C)-induced innate/adaptive immune and IFNα/β-regulated genes, HFLS-RA cells. The data set can be described thus: Genes modulated by IKKε/TBK1 inhibition in HFLS-RA cells (qRT-PCR arrays, Poly(I:C)). Format: cell-based, human. Particulars: 500 nM pre-treatment. As for the experimental part: IKKε and TBK1 play important roles in modulating several innate/adaptive immune and interferon-regulated genes in response to bacterial and viral infections. To identify genes that are under the control of IKKε and TBK1 kinase activity HFLS-RA cells (Cell Applications, Inc., San Diego, Calif.) were pretreated with a compound according to Formula I (Example Compound 5) (0.5 uM), and then treated with the TLR3 agonist Poly(I:C). A focused RT-PCR array containing either 84 innate/adaptive immune-regulated or 84 IFNα/β-regulated genes were probed by qRT-PCR using mRNA isolated from the treated cells, as well as from untreated control cells, according to the following protocol.
HFLS cells isolated from patients with RA were obtained from Cell Applications, Inc. (HFLS-RA, Cell Applications, Inc., San Diego, Calif.). Cells were seeded in synoviocyte growth medium (Cell Applications, Inc., San Diego, Calif.) and allowed to grow overnight. The following day, media was replaced and cells were treated with 500 nM of Example Compound 5 (0.1% final DMSO concentration). Two hours later, cells were induced with 50 µg/mL Poly(I:C) (Sigma-Aldrich, St. Louis, Mo.). […] RNA was quantitated using Quant-iT™ RiboGreen® RNA Assay Kit (Invitrogen, Inc., Carlsbad, Calif.). […]
Background: Quantitative PCR measures a nucleic acid by following its amplification.

Data set [4] deals with collagen-induced arthritis. The data set can be described thus: Collagen-induced arthritis model in mice. Format: in vivo. Particulars: for day symptoms of arthritis appeared: days 18-34. The protocol:
Male DBA/1 mice were injected with 150 μL of […] bovine type II collagen in Freund's complete adjuvant on days 0 and 21. On days 18 through 34, 100 mg/kg or 150 mg/kg Example Compound 5 was administered orally each day. Also on days 18 through 34, all mouse paws were given a clinical score on a scale of 0-5, based upon the severity of erythema and swelling. Body weights were measured every other day beginning on day 18. Mice were euthanized on day 34, livers were weighed and paws frozen in preparation for subsequent histopathology evaluation.

Another data set concerns BLyS mRNA, normal PBMCs. The data set can be described thus: Agonist induced BLyS mRNA in PBMCs from healthy donors (qRT-PCR). The data set is classed as cell-based, human. Particulars: LMW poly(I:C), serial dilutions. An excerpt:
(§1) To determine if inhibition of IKKε and/or TBK1 modulates nucleic acid agonist induced gene expression, high molecular weight poly(I:C) (MDA5 agonist) and low weight poly(I:C) (RIG-I agonist) were electroporated into human peripheral blood mononuclear cells (PBMCs) obtained from normal donors, or low molecular weight Poly(I:C) was electroporated into PBMCs from donors that have Systemic Lupus Erythematosus (SLE). Induction of IFN-α2, IFN-β, and BLyS mRNA production was monitored by qRT-PCR.
(§2) Human PBMCs were collected from healthy donors using routine laboratory procedures. PBMCs from SLE patients were purchased from Astarte Biologics (Redmond, Wash.). The PBMCs were electroporated using Nucleofector® Kit V (Lonza, Walkersville, Md.) with 0.4 ug/mL of high molecular weight poly (I:C) (InvivoGen, San Diego, Calif.) or 0.4 ug/mL low molecular weight poly (I:C) (InvivoGen, San Diego, Calif.) and seeded into wells containing serial dilutions of Example Compound 5 (0.1% final DMSO concentration). […] RNA was quantitated using Quant-iT™ RiboGreen® RNA Assay Kit (Invitrogen, Carlsbad, Calif.). Reverse transcription and real-time PCR were performed using the QuantiTect Probe RT-PCR Kit (Qiagen, Germantown, Md.) and the 7300 Real-Time PCR System (Applied Biosytems, Foster City, Calif.). […]

A further data set relates to IFN-α2 mRNA, SLE PBMCs. The data set can be described thus: Agonist induced IFN-α2 mRNA in PBMCs from SLE patients (qRT-PCR). The data set is classed as cell-based, human. The conditions noted are these: LMW poly(I:C), serial dilutions.
From the text: as §1, §2

For a further data set, the system named is IFN-β1 mRNA, SLE PBMCs. The data set can be described thus: Agonist induced IFN-β1 mRNA in PBMCs from SLE patients (qRT-PCR). Particulars: LMW poly(I:C), serial dilutions. Format: cell-based, human.
From the text: as §1, §2

The structures appear in SMILES notation.

For `N#Cc1cc(-c2ccnc(Nc3ccc(N4CCOCC4)cc3)n2)ccc1OC1CCOCC1` [Example 5, 5-(2-{[4-(Morpholin-4-yl)phenyl]amino}pyrimidin-4-yl)-2-(tetrahydro-2H-pyran-4-yloxy)benzaonitrile], the “inhibition of IKKε-mediated phosphorylation of IRF7” value in data set [1] was “inhibit”. For the same compound, the IC50 in data set [2] is about 60 nM. Further, the “induction of genes normally induced by Poly(I:C) treatment” value in data set [3] is “potently inhibited”. In data set [4] (100 mg/kg orally), the “day symptoms were present in all mice” value was at most 30 days; the “inhibition of AUC of clinical score as a function of time” value is reported as 29%; the “inhibition of body weight loss, day 18-34” value was 23%; the “reduction of magnitude of clinical score on day 34” value is reported as 20%. In data set [4] (100 mg/kg orally each day), the “day symptoms of arthritis appeared” value amounted to 23 days. Besides, in data set [4] (150 mg/kg orally), the “day symptoms were present in all mice” value is at most 30 days; the “inhibition of AUC of clinical score as a function of time” value is reported as 45%; the “inhibition of body weight loss, day 18-34” value stood at 42%; the “reduction of magnitude of clinical score on day 34” value is 38%. Also, in data set [4] (150 mg/kg orally each day), the “day symptoms of arthritis appeared” value was 24 days. Besides, in data set [4] (100 and 150 mg/kg orally), the “effect in reducing collagen-induced arthritis” value is listed as “significant, dose-dependent effects”. For the same compound, in data set [4] (any treatment (100 and 150 mg/kg), day 34), the liver weights entry was “No differences”. The “increases in erythema and swelling (cumulative clinical score)” value in data set [4] (both doses (100 and 150 mg/kg)) was “significantly slower”. In addition, in the data set on BLyS mRNA, normal PBMCs, the “induction of BLyS mRNA” value was “potently inhibited”. Moreover, the “induction of IFN-α2 mRNA” value with IFN-α2 mRNA, SLE PBMCs was “potently inhibited”. Also, the “induction of IFN-β1 mRNA” value in the data set on IFN-β1 mRNA, SLE PBMCs is “potently inhibited”.

As usually defined, the IC50 is the midpoint of a concentration-inhibition curve.
